Measurements from US10597388B2, “Pyridazinone herbicides” (FMC CORPORATION, priority 2014, dated 2020).

Legend:
Test in all cases: Test D controlled growth environment herbicide test, pre- and postemergence
Type in all cases: in vivo
[1] = test system: barley, winter (winter barley, Hordeum vulgare)
Procedure, shortened: (§1)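 Pre-emergence: seeds sown in silt loam soil were sprayed with compound in a non-phytotoxic solvent mix containing surfactant. Post-emergence: plants at 2 to 18 cm (1- to 4-leaf stage) in peat moss/vermiculite medium got the same formulation. Visual 0–100 rating versus controls after 14 to 21 d.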

[2] = test system: galium (catchweed bedstraw, Galium aparine)
Procedure, shortened: as §1

[3] = test system: oilseed rape (Brassica napus)
Procedure, shortened: as §1

[4] = test system: field poppy (Papaver rhoeas)
Procedure, shortened: as §1

[5] = test system: mustard, wild (wild mustard, Sinapis arvensis)
Procedure, shortened: as §1

[6] = test system: chamomile (scentless chamomile, Matricaria inodora)
Procedure, shortened: as §1

[7] = test system: oat, wild (wild oat, Avena fatua)
Procedure, shortened: as §1

[8] = test system: radish, wild (wild radish, Raphanus raphanistrum)
Procedure, shortened: as §1

[9] = test system: buckwheat, wild (wild buckwheat, Polygonum convolvulus)
Procedure, shortened: as §1

[10] = test system: pigweed (Amaranthus retroflexus)
Procedure, shortened: as §1

[11] = test system: bluegrass (annual bluegrass, Poa annua)
Procedure, shortened: as §1

[12] = test system: barley, spring (spring barley, Hordeum vulgare)
Procedure, shortened: as §1

[13] = test system: speedwell (bird's-eye speedwell, Veronica persica)
Procedure, shortened: as §1

[14] = Postemergence, 31 g ai/ha, scale 0 to 100 (0 no effect, 100 complete control)
[15] = Postemergence, 125 g ai/ha, visual rating on scale 0 (no effect) to 100 (complete control), 14 to 21 d
[16] = Postemergence, 250 g ai/ha, scale 0 to 100 (0 no effect, 100 complete control)
[17] = Preemergence, 62 g ai/ha, scale 0 to 100 (0 no effect, 100 complete control)
[18] = Preemergence, 125 g ai/ha, scale 0 to 100 (0 no effect, 100 complete control)
[19] = Preemergence, 250 g ai/ha, scale 0 to 100 (0 no effect, 100 complete control)
[20] = postemergence, 62 g ai/ha, scale 0 to 100, 0 no effect, 100 complete control

SMILES: CCOC(=O)Oc1c(C)nn(C)c(=O)c1-c1c(C)ccc2ccccc12 [Compound 73]
- Barley, Winter plant response rating [1, 14]: 15
- Plant response rating, Barley, Winter [1, 15]: 20
- Plant response rating, Barley, Winter [1, 16]: 35
- Plant response rating (scale of 0 to 100), Barley, Winter ([1]; Preemergence, 31 g ai/ha): 5
- Plant response rating, Barley, Winter [1, 17]: 40
- Plant response rating, Barley, Winter [1, 18]: 60
- Plant response rating, Barley, Winter [1, 19]: 75
- Plant response rating, Barley, Winter [1, 20]: 15
- Galium plant response rating [2, 14]: 95
- Plant response rating, Galium [2, 15]: 100
- Plant response rating, Galium [2, 16]: 100
- Plant response rating (scale of 0 to 100), Galium ([2]; Preemergence, 31 g ai/ha): 40
- Plant response rating, Galium [2, 17]: 80
- Plant response rating, Galium [2, 18]: 80
- Plant response rating, Galium [2, 19]: 90
- Plant response rating, Galium [2, 20]: 100
- Oilseed Rape plant response rating [3, 14]: 65
- Plant response rating, Oilseed Rape [3, 15]: 75
- Plant response rating, Oilseed Rape [3, 16]: 95
- Plant response rating (scale of 0 to 100), Oilseed Rape ([3]; Preemergence, 31 g ai/ha): 0
- Plant response rating, Oilseed Rape [3, 17]: 5
- Plant response rating, Oilseed Rape [3, 18]: 0
- Plant response rating, Oilseed Rape [3, 19]: 70
- Plant response rating, Oilseed Rape [3, 20]: 70
- Field Poppy plant response rating [4, 14]: 75
- Plant response rating, Field Poppy [4, 15]: 100
- Plant response rating, Field Poppy [4, 16]: 100
- Plant response rating (scale of 0 to 100), Field Poppy ([4]; Preemergence, 31 g ai/ha): 70
- Plant response rating, Field Poppy [4, 17]: 100
- Plant response rating, Field Poppy [4, 18]: 100
- Plant response rating, Field Poppy [4, 19]: 100
- Plant response rating, Field Poppy [4, 20]: 100
- Mustard, Wild plant response rating [5, 14]: 85
- Plant response rating, Mustard, Wild [5, 15]: 100
- Plant response rating, Mustard, Wild [5, 16]: 100
- Plant response rating (scale of 0 to 100), Mustard, Wild ([5]; Preemergence, 31 g ai/ha): 65
- Plant response rating, Mustard, Wild [5, 17]: 80
- Plant response rating, Mustard, Wild [5, 18]: 100
- Plant response rating, Mustard, Wild [5, 19]: 100
- Plant response rating, Mustard, Wild [5, 20]: 100
- Chamomile plant response rating [6, 14]: 70
- Plant response rating, Chamomile [6, 15]: 90
- Plant response rating, Chamomile [6, 16]: 100
- Plant response rating, Chamomile [6, 20]: 85
- Oat, Wild plant response rating [7, 14]: 85
- Plant response rating, Oat, Wild [7, 15]: 95
- Plant response rating, Oat, Wild [7, 16]: 100
- Plant response rating (scale of 0 to 100), Oat, Wild ([7]; Preemergence, 31 g ai/ha): 75
- Plant response rating, Oat, Wild [7, 17]: 90
- Plant response rating, Oat, Wild [7, 18]: 85
- Plant response rating, Oat, Wild [7, 19]: 100
- Plant response rating, Oat, Wild [7, 20]: 95
- Radish, Wild plant response rating [8, 14]: 75
- Plant response rating, Radish, Wild [8, 15]: 100
- Plant response rating, Radish, Wild [8, 16]: 100
- Plant response rating (scale of 0 to 100), Radish, Wild ([8]; Preemergence, 31 g ai/ha): 30
- Plant response rating, Radish, Wild [8, 17]: 75
- Plant response rating, Radish, Wild [8, 18]: 100
- Plant response rating, Radish, Wild [8, 19]: 90
- Plant response rating, Radish, Wild [8, 20]: 95
- Buckwheat, Wild plant response rating [9, 14]: 95
- Plant response rating, Buckwheat, Wild [9, 15]: 100
- Plant response rating, Buckwheat, Wild [9, 16]: 100
- Plant response rating (scale of 0 to 100), Buckwheat, Wild ([9]; Preemergence, 31 g ai/ha): 0
- Plant response rating, Buckwheat, Wild [9, 17]: 0
- Plant response rating, Buckwheat, Wild [9, 18]: 60
- Plant response rating, Buckwheat, Wild [9, 19]: 30
- Plant response rating, Buckwheat, Wild [9, 20]: 100
- Pigweed plant response rating [10, 14]: 100
- Plant response rating, Pigweed [10, 15]: 100
- Plant response rating, Pigweed [10, 16]: 100
- Plant response rating (scale of 0 to 100), Pigweed ([10]; Preemergence, 31 g ai/ha): 70
- Plant response rating, Pigweed [10, 17]: 100
- Plant response rating, Pigweed [10, 18]: 100
- Plant response rating, Pigweed [10, 19]: 100
- Plant response rating, Pigweed [10, 20]: 100
- Bluegrass plant response rating [11, 14]: 15
- Plant response rating, Bluegrass [11, 15]: 55
- Plant response rating, Bluegrass [11, 16]: 65
- Plant response rating (scale of 0 to 100), Bluegrass ([11]; Preemergence, 31 g ai/ha): 15
- Plant response rating, Bluegrass [11, 17]: 35
- Plant response rating, Bluegrass [11, 18]: 35
- Plant response rating, Bluegrass [11, 19]: 30
- Plant response rating, Bluegrass [11, 20]: 30
- Barley, Spring plant response rating [12, 14]: 10
- Plant response rating, Barley, Spring [12, 15]: 30
- Plant response rating, Barley, Spring [12, 16]: 40
- Plant response rating (scale of 0 to 100), Barley, Spring ([12]; Preemergence, 31 g ai/ha): 0
- Plant response rating, Barley, Spring [12, 17]: 10
- Plant response rating, Barley, Spring [12, 18]: 0
- Plant response rating, Barley, Spring [12, 19]: 60
- Plant response rating, Barley, Spring [12, 20]: 25
- Speedwell plant response rating [13, 14]: 70
- Plant response rating, Speedwell [13, 15]: 100
- Plant response rating, Speedwell [13, 16]: 100
- Plant response rating (scale of 0 to 100), Speedwell ([13]; Preemergence, 31 g ai/ha): 100
- Plant response rating, Speedwell [13, 17]: 100
- Plant response rating, Speedwell [13, 18]: 100
- Plant response rating, Speedwell [13, 19]: 100
- Plant response rating, Speedwell [13, 20]: 100
